In general, IC50 refers to the point on the concentration scale where inhibition reaches its midpoint.

For the first experiment, the target named is T1, PD-1/PD-L1 (Homo sapiens, UniProt Q9NZQ7).
T1 construct: made in house; host or cells: HEK293T
T1 sequence (Q9NZQ7 with tags, fused parts or gaps): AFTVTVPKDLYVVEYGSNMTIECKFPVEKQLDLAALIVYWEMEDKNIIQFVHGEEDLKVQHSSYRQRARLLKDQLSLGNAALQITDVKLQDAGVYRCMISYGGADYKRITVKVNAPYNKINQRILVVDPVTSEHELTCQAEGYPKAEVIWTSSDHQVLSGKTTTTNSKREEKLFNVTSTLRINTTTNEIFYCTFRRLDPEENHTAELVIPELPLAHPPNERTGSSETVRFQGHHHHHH
Put plainly: PD-1/PD-L1 Homogenous Time-Resolved Fluorescence (HTRF) binding assay. The conditions noted are these: PD-L1-His 10 nM, PD-1-Ig 20 nM; numeric IC50; read-out: Range or IC50. Put shortly: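 Detection by europium cryptate anti-Ig plus APC anti-His (1 nM and 20 nM final) with HTRF signal. Buffer was dPBS, 0.1% BSA, 0.05% Tween-20.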
A general note: TR-FRET usually uses a lanthanide donor and a delayed reading to cut background.
Consider `Cc1c(OCCCN2CC[C@@H](O)C2)cccc1-c1cccc(COc2cc(OCc3cncc(C#N)c3)c(CNC(CO)CO)cc2Cl)c1Cl` [Example 2300, (R)-5-((4-chloro-5-((2-chloro-3′-(3-(3-hydroxypyrrolidin-1-yl)propoxy)-2′-methyl-[1,1′-biphenyl]-3-yl)methoxy)-2-(((1,3-dihydroxypropan-2-yl)amino)methyl)phenoxy)methyl)nicotinonitrile], for which the IC50 worked out at 1.7 nM.

As for `Cc1c(OCCCN2CCOCC2)cccc1-c1cccc(COc2cc(OCc3cncc(C#N)c3)c(CN3CCCC[C@H]3C(=O)O)cc2Cl)c1Cl` [Example 2309, (S)-1-(5-chloro-4-((2-chloro-2′-methyl-3′-(3-morpholinopropoxy)-[1,1′-biphenyl]-3-yl)methoxy)-2-((5-cyanopyridin-3-yl)methoxy)benzyl)piperidine-2-carboxylic Acid], the IC50 was 3 nM.

Staying with this experiment, now noted: PD-L1-His 10 nM, PD-1-Ig 20 nM; value given as range class; read-out: Range or IC50.
As to `Cc1c(OCCCN2CCCCC2)cccc1-c1cccc(COc2cc(OCc3cncc(C#N)c3)c(CNC(CO)CO)cc2Cl)c1Cl` [Example 2301, 5-((4-chloro-5-((2-chloro-2′-methyl-3′-(3-(piperidin-1-yl)propoxy)-[1,1′-biphenyl]-3-yl)methoxy)-2-(((1,3-dihydroxypropan-2-yl)amino)methyl)phenoxy)methyl)nicotinonitrile], the half-inhibitory concentration (IC50) was 0.21 to 10 nM.

As to `Cc1c(OCCCN2CC[C@@H](O)C2)cccc1-c1cccc(COc2cc(OCc3cncc(C#N)c3)c(CN3CCCC[C@H]3C(=O)O)cc2Cl)c1Cl` [Example 2302, (S)-1-(5-chloro-4-((2-chloro-3′-(3-((R)-3-hydroxypyrrolidin-1-yl)propoxy)-2′-methyl-[1,1′-biphenyl]-3-yl)methoxy)-2-((5-cyanopyridin-3-yl)methoxy)benzyl)piperidine-2-carboxylic Acid], the IC50 fell in the range of 0.21 to 10 nM.

`Cc1c(OCCCNC[C@H](O)CO)cccc1-c1cccc(COc2cc(OCc3cncc(C#N)c3)c(CN3CCCC[C@H]3C(=O)O)cc2Cl)c1Cl` [Example 2303, (S)-1-(5-chloro-4-((2-chloro-3′-(3-(((S)-2,3-dihydroxypropyl)amino)propoxy)-2′-methyl-[1,1′-biphenyl]-3-yl)methoxy)-2-((5-cyanopyridin-3-yl)methoxy)benzyl)piperidine-2-carboxylic Acid]: the IC50 lay in the range of 0.21 to 10 nM.

Consider `Cc1c(OCCCN2CC[C@H](O)C2)cccc1-c1cccc(COc2cc(OCc3cncc(C#N)c3)c(CN3CCCC[C@H]3C(=O)O)cc2Cl)c1Cl` [Example 2304, (S)-1-(5-chloro-4-((2-chloro-3′-(3-((S)-3-hydroxypyrrolidin-1-yl)propoxy)-2′-methyl-[1,1′-biphenyl]-3-yl)methoxy)-2-((5-cyanopyridin-3-yl)methoxy)benzyl)piperidine-2-carboxylic Acid], for which the 50% inhibitory concentration (IC50) is 0.21 to 10 nM.

As to `Cc1c(OCCCN2CC[C@@H](O)C2)cccc1-c1cccc(COc2cc(OCc3cncc(C#N)c3)c(CNC(C)(CO)CO)cc2Cl)c1Cl` [Example 2305, (R)-5-((4-chloro-5-((2-chloro-3′-(3-(3-hydroxypyrrolidin-1-yl)propoxy)-2′-methyl-[1,1′-biphenyl]-3-yl)methoxy)-2-(((1,3-dihydroxy-2-methylpropan-2-yl)amino)methyl)phenoxy)methyl)nicotinonitrile], the IC50 fell in the range of 0.21 to 10 nM.

Regarding `Cc1c(OCCCN2CCCCC2)cccc1-c1cccc(COc2cc(OCc3cncc(C#N)c3)c(CN3CCCC[C@H]3C(=O)O)cc2Cl)c1Cl` [Example 2306, (S)-1-(5-chloro-4-((2-chloro-2′-methyl-3′-(3-(piperidin-1-yl)propoxy)-[1,1′-biphenyl]-3-yl)methoxy)-2-((5-cyanopyridin-3-yl)methoxy)benzyl)piperidine-2-carboxylic Acid], the IC50 fell in the range of 0.21 to 10 nM.

On to `Cc1c(OCCCNC[C@H](O)CO)cccc1-c1cccc(COc2cc(OCc3cncc(C#N)c3)c(CNC(C)(CO)CO)cc2Cl)c1Cl` [Example 2307, (S)-5-((4-chloro-5-((2-chloro-3′-(3-((2,3-dihydroxypropyl)amino)propoxy)-2′-methyl-[1,1′-biphenyl]-3-yl)methoxy)-2-(((1,3-dihydroxy-2-methylpropan-2-yl)amino)methyl)phenoxy)methyl)nicotinonitrile], for which the IC50 fell in the range of 0.21 to 10 nM.

For `Cc1c(OCCCN2CCCCC2)cccc1-c1cccc(COc2cc(OCc3cncc(C#N)c3)c(CNC(C)(CO)CO)cc2Cl)c1Cl` [Example 2308, 5-((4-chloro-5-((2-chloro-2′-methyl-3′-(3-(piperidin-1-yl)propoxy)-[1,1′-biphenyl]-3-yl)methoxy)-2-(((1,3-dihydroxy-2-methylpropan-2-yl)amino)methyl)phenoxy)methyl)nicotinonitrile], the half-inhibitory concentration (IC50) lay in the range of 0.21 to 10 nM.

`Cc1c(OCCCN2CCS(=O)(=O)CC2)cccc1-c1cccc(COc2cc(OCc3cncc(C#N)c3)c(CN3CCCC[C@H]3C(=O)O)cc2Cl)c1Cl` [Example 2310, (S)-1-(5-chloro-4-((2-chloro-3′-(3-(1,1-dioxidothiomorpholino)propoxy)-2′-methyl-[1,1′-biphenyl]-3-yl)methoxy)-2-((5-cyanopyridin-3-yl)methoxy)benzyl)piperidine-2-carboxylic Acid]: the IC50 is 0.21 to 10 nM.

Regarding `CC(=O)N[C@H]1CCN(CCCOc2cccc(-c3cccc(COc4cc(OCc5cncc(C#N)c5)c(CNC(CO)CO)cc4Cl)c3Cl)c2C)C1` [Example 2311, (S)—N-(1-(3-((2′-chloro-3′-((2-chloro-5-((5-cyanopyridin-3-yl)methoxy)-4-(((1,3-dihydroxypropan-2-yl)amino)methyl)phenoxy)methyl)-2-methyl-[1,1′-biphenyl]-3-yl)oxy)propyl)pyrrolidin-3-yl)acetamide], the IC50 lay in the range of 0.21 to 10 nM.

For the compound `Cc1c(OCCCN2CC[C@@H](O)C2)cccc1-c1cccc(COc2cc(OCc3cncc(C#N)c3)c(CN(CCc3cncc(C#N)c3)C(CO)CO)cc2Cl)c1Cl` [Example 2312, (R)-5-(2-((5-chloro-4-((2-chloro-3′-(3-(3-hydroxypyrrolidin-1-yl)propoxy)-2′-methyl-[1,1′-biphenyl]-3-yl)methoxy)-2-((5-cyanopyridin-3-yl)methoxy)benzyl)(1,3-dihydroxypropan-2-yl)amino)ethyl)nicotinonitrile], the IC50 lay in the range of 0.21 to 10 nM.

Regarding `C=CCOc1cc(OCc2cccc(-c3cccc(OCCCN4CC[C@@H](O)C4)c3C)c2Cl)c(Cl)cc1CNC(CO)CO` [Example 2313, (R)-2-((2-(allyloxy)-5-chloro-4-((2-chloro-3′-(3-(3-hydroxypyrrolidin-1-yl)propoxy)-2′-methyl-[1,1′-biphenyl]-3-yl)methoxy)benzyl)amino)propane-1,3-diol], the IC50 was in the range of 0.21 to 10 nM.

`Cc1c(OCCCN2CC[C@@H](O)C2)cccc1-c1cccc(COc2cc(OCC#N)c(CNC(CO)CO)cc2Cl)c1Cl` [Example 2314, (R)-2-(4-chloro-5-((2-chloro-3′-(3-(3-hydroxypyrrolidin-1-yl)propoxy)-2′-methyl-[1,1′-biphenyl]-3-yl)methoxy)-2-(((1,3-dihydroxypropan-2-yl)amino)methyl)phenoxy)acetonitrile]: the IC50 fell in the range of 0.21 to 10 nM.

For the compound `Cc1c(OCCCN2CC[C@@H](O)C2)cccc1-c1cccc(COc2cc(OCC(=N)N3CC[C@@H](O)C3)c(CNC(CO)CO)cc2Cl)c1Cl` [Example 2315, 2-((5-chloro-4-((2-chloro-3′-(3-((R)-3-hydroxypyrrolidin-1-yl)propoxy)-2′-methyl-[1,1′-biphenyl]-3-yl)methoxy)-2-(2-((R)-3-hydroxypyrrolidin-1-yl)-2-iminoethoxy)benzyl)amino)propane-1,3-diol], the IC50 was in the range of 0.21 to 10 nM.

Source of the values: US10745382B2 (BRISTOL-MYERS SQUIBB COMPANY, priority 2015, dated 2020).
